# Read-outs that look alike come from different tables or passages of the source. Where a SMILES comes first, the peptide text is derived from it. Bridges are numbered along the chain shown (N, C = ends). [ ]: non-standard residue; d: D form. Tle = CC(C)(C)[C@H](N)C(=O)O; dDab = NCC[C@@H](N)C(=O)O; NMeA = CN[C@@H](C)C(=O)O; Orn = NCCC[C@H](N)C(=O)O; Dab = NCC[C@H](N)C(=O)O; Dap = NC[C@H](N)C(=O)O
# Legend:
# Format in all cases: cell-based
# [1] = system: Acinetobacter baumannii DSM 30008
# Outline: (§1)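 Peptide activity was tested by NCCLS broth microdilution with slight modifications. Bacteria were diluted in cation-adjusted Mueller-Hinton II broth to approximately 10^6 CFU/mL against a 0.5 McFarland standard. They were then exposed to two-fold serial peptide dilutions in broth containing 0.002% final polysorbate 80.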
# [2] = system: Escherichia coli ATCC 25922
# Outline: as §1
# [3] = system: Klebsiella pneumoniae ATCC 13883
# Outline: as §1
# [4] = system: human red blood cells (hRBC); assay: Hemolysis of human red blood cells
# Protocol: Stock solutions were kept at +4° C., light protected.
# Percent hemolysis was calculated as follows: (OD540peptide/OD540H2O)×100%.
# [5] = Mueller-Hinton broth II, 0.002% P-80, 18-20 hours at 35° C.
SMILES,Acinetobacter baumannii DSM 30008 MIC ([1]; DSM 30008) [mg/L],Escherichia coli ATCC 25922 MIC ([2]; ATCC 25922) [mg/L],Klebsiella pneumoniae ATCC 13883 MIC ([3]; ATCC 13883) [mg/L],"Hemolysis at 100 μg/mL ([4]; red cells of human, 1 h, 100) [%]","Acinetobacter baumannii DSM 30008 MIC [1, 5] [mg/L]","Escherichia coli ATCC 25922 MIC [2, 5] [mg/L]","Klebsiella pneumoniae ATCC 13883 MIC [3, 5] [mg/L]","Hemolysis at 100 μg/mL ([4]; 100 μg/mL, 20% hRBC (v/v), 1 h at 37° C.) [%]"
"CC[C@H](C)[C@@H]1NC(=O)[C@H](Cc2ccc(O)cc2)NC(=O)[C@H]2CCCN2C(=O)[C@H](CO)NC(=O)[C@@H]2CSSC[C@H](NC1=O)C(=O)N[C@@H](Cc1ccc(O)cc1)C(=O)N[C@@H](CCN)C(=O)N[C@@H](CCCN)C(=O)N[C@H](CCN)C(=O)N[C@@H](CCN)C(=O)N[C@@H](Cc1c[nH]c3ccccc13)C(=O)N[C@@H](CCN)C(=O)N[C@@H](C(C)(C)C)C(=O)N2 [Example 11, cyclo(-Ile-Cys-Tyr-Dab-Orn-^DDab-Dab-Trp-Dab-tBuGly-Cys-Ser-^DPro-Tyr-)] (HELM PEPTIDE1{C.S.[dP].Y.I.C.Y.[Dab].[Orn].[NCC[C@@H](N[*:1])C(=O)[*:2]].[Dab].W.[Dab].[CC(C)(C)[C@H](N[*:1])C(=O)[*:2]]}$PEPTIDE1,PEPTIDE1,1:R3-6:R3|PEPTIDE1,PEPTIDE1,1:R1-14:R2$$$V2.0)",1,2,0.5,1,–,–,–,–
"CC(C)[C@@H]1NC(=O)[C@@H]2CCCN2C(=O)[C@H]2CCCN2C(=O)[C@H](CO)NC(=O)[C@@H]2CC(=O)NCC[C@H](NC1=O)C(=O)N[C@@H](Cc1ccc(O)cc1)C(=O)N[C@@H](CCN)C(=O)N[C@@H](CCN)C(=O)N[C@H](CCN)C(=O)N[C@@H](CCN)C(=O)N[C@@H](Cc1c[nH]c3ccccc13)C(=O)N[C@@H](CCN)C(=O)N[C@@H](c1ccccc1)C(=O)N2 [Example 16, cyclo(-Val-Dab-Tyr-Dab-Dab-^DDab-Dab-Trp-Dab-Phg-Asp-Ser-^DPro-Pro-)] (HELM PEPTIDE1{V.[Dab].Y.[Dab].[Dab].[NCC[C@@H](N[*:1])C(=O)[*:2]].[Dab].W.[Dab].[Phg].D.S.[dP].P}$PEPTIDE1,PEPTIDE1,2:R3-11:R3|PEPTIDE1,PEPTIDE1,1:R1-14:R2$$$V2.0)",1,0.5,0.5,1,–,–,–,–
"CC(C)C[C@@H]1NC(=O)[C@@H]2CCCN2C(=O)[C@H]2CCCN2C(=O)[C@H](CO)NC(=O)[C@@H]2CC(=O)NCC[C@H](NC1=O)C(=O)N[C@@H](Cc1ccc(O)cc1)C(=O)N[C@@H](CCN)C(=O)N[C@@H](CCCN)C(=O)N[C@H](CCN)C(=O)N[C@@H](CCN)C(=O)N[C@@H](Cc1c[nH]c3ccccc13)C(=O)N[C@@H](CCN)C(=O)N[C@@H](C(C)(C)C)C(=O)N2 [Example 37, cyclo(-Leu-Dab-Tyr-Dab-Orn-^DDab-Dab-Trp-Dab-tBuGly-Asp-Ser-^DPro-Pro-)] (HELM PEPTIDE1{L.[Dab].Y.[Dab].[Orn].[NCC[C@@H](N[*:1])C(=O)[*:2]].[Dab].W.[Dab].[CC(C)(C)[C@H](N[*:1])C(=O)[*:2]].D.S.[dP].P}$PEPTIDE1,PEPTIDE1,2:R3-11:R3|PEPTIDE1,PEPTIDE1,1:R1-14:R2$$$V2.0)",0.5,0.5,0.5,2.5,–,–,–,–
"CC(C)[C@@H]1NC(=O)[C@H](C)N(C)C(=O)[C@H]2CCCN2C(=O)[C@H](CO)NC(=O)[C@@H]2CSSC[C@H](NC1=O)C(=O)N[C@@H](Cc1ccc(O)cc1)C(=O)N[C@@H](CCN)C(=O)N[C@@H](CN)C(=O)N[C@H](CCN)C(=O)N[C@@H](CCN)C(=O)N[C@@H](Cc1c[nH]c3ccccc13)C(=O)N[C@@H](CCN)C(=O)N[C@@H](C(C)(C)C)C(=O)N2 [Example 9, cyclo(-Val-Cys-Tyr-Dab-Dap-^DDab-Dab-Trp-Dab-tBuGly-Cys-Ser-^DPro-NMeAla-)] (cyclo(CS[dP][NMeA]VCY[Dab][Dap][dDab][Dab]W[Dab][Tle]); disulfide 1-6)",1,0.5,1,6,–,–,–,–
"CC(C)C[C@@H]1NC(=O)[C@H](CN)NC(=O)[C@H]2CCCN2C(=O)[C@H](C(C)C)NC(=O)[C@@H]2CSSC[C@H](NC1=O)C(=O)N[C@@H](Cc1ccc(O)cc1)C(=O)N[C@@H](C)C(=O)N[C@@H](CCCN)C(=O)N[C@H](CCN)C(=O)N[C@@H](CCN)C(=O)N[C@@H](Cc1c[nH]c3ccccc13)C(=O)N[C@@H](C)C(=O)N[C@@H](C(C)C)C(=O)N2 [Example 6, cyclo(-Leu-Cys-Tyr-Ala-Orn-^DDab-Dab-Trp-Ala-Val-Cys-Val-^DPro-Dap-)] (HELM PEPTIDE1{A.[Orn].[NCC[C@@H](N[*:1])C(=O)[*:2]].[Dab].W.A.V.C.V.[dP].[NC[C@H](N[*:1])C(=O)[*:2]].L.C.Y}$PEPTIDE1,PEPTIDE1,8:R3-13:R3|PEPTIDE1,PEPTIDE1,1:R1-14:R2$$$V2.0)",1.5,2,2,5,–,–,–,–
"CC(C)C[C@@H]1NC(=O)[C@@H]2CCCN2C(=O)[C@H]2CCCN2C(=O)[C@H](CO)NC(=O)[C@@H]2CNC(=O)CC[C@H](NC1=O)C(=O)N[C@@H](Cc1ccc(O)cc1)C(=O)N[C@@H](CCN)C(=O)N[C@@H](CCCN)C(=O)N[C@@H](CCN)C(=O)N[C@@H](CCN)C(=O)N[C@@H](Cc1c[nH]c3ccccc13)C(=O)N[C@@H](CCN)C(=O)N[C@@H](C(C)(C)C)C(=O)N2 [Example 18, cyclo(-Leu-Glu-Tyr-Dab-Orn-Dab-Dab-Trp-Dab-tBuGly-Dap-Ser-^DPro-Pro-)] (HELM PEPTIDE1{L.E.Y.[Dab].[Orn].[Dab].[Dab].W.[Dab].[CC(C)(C)[C@H](N[*:1])C(=O)[*:2]].[O=C([C@H](CN[*:3])N[*:1])[*:2]].S.[dP].P}$PEPTIDE1,PEPTIDE1,2:R3-11:R3|PEPTIDE1,PEPTIDE1,1:R1-14:R2$$$V2.0)",3,2,0.5,0,–,–,–,–
"CC(C)C[C@@H]1NC(=O)[C@H](CCN)NC(=O)[C@H]2CCCN2C(=O)[C@H](C(C)C)NC(=O)[C@@H]2CSSC[C@H](NC1=O)C(=O)N[C@@H](Cc1ccc(O)cc1)C(=O)N[C@@H](C)C(=O)N[C@@H](CCN)C(=O)N[C@H](CCN)C(=O)N[C@@H](CCN)C(=O)N[C@@H](Cc1c[nH]c3ccccc13)C(=O)N[C@@H](C)C(=O)N[C@@H](C(C)C)C(=O)N2 [Example 2, cyclo(-Leu-Cys-Tyr-Ala-Dab-^DDab-Dab-Trp-Ala-Val-Cys-Val-^DPro-Dab-)] (HELM PEPTIDE1{A.[Dab].[NCC[C@@H](N[*:1])C(=O)[*:2]].[Dab].W.A.V.C.V.[dP].[Dab].L.C.Y}$PEPTIDE1,PEPTIDE1,8:R3-13:R3|PEPTIDE1,PEPTIDE1,1:R1-14:R2$$$V2.0)",2.5,2,2,3,–,–,–,–
"CC(C)C[C@@H]1NC(=O)[C@H](CCCCN)NC(=O)[C@H]2CCCN2C(=O)[C@H](C(C)C)NC(=O)[C@@H]2CSSC[C@H](NC1=O)C(=O)N[C@@H](Cc1ccc(O)cc1)C(=O)N[C@@H](C)C(=O)N[C@@H](CCCN)C(=O)N[C@H](CCN)C(=O)N[C@@H](CCN)C(=O)N[C@@H](Cc1c[nH]c3ccccc13)C(=O)N[C@@H](C)C(=O)N[C@@H](C(C)C)C(=O)N2 [Example 3, cyclo(-Leu-Cys-Tyr-Ala-Orn-^DDab-Dab-Trp-Ala-Val-Cys-Val-^DPro-Lys-)] (HELM PEPTIDE1{A.[Orn].[NCC[C@@H](N[*:1])C(=O)[*:2]].[Dab].W.A.V.C.V.[dP].K.L.C.Y}$PEPTIDE1,PEPTIDE1,8:R3-13:R3|PEPTIDE1,PEPTIDE1,1:R1-14:R2$$$V2.0)",1,2,4,3.5,–,–,–,–
"CC(C)C[C@@H]1NC(=O)[C@@H]2CCCN2C(=O)[C@H]2CCCN2C(=O)[C@H](CO)NC(=O)[C@@H]2CCC(=O)NC[C@H](NC1=O)C(=O)N[C@@H](Cc1ccc(O)cc1)C(=O)N[C@@H](CCN)C(=O)N[C@@H](CCCN)C(=O)N[C@H](CCN)C(=O)N[C@@H](CCN)C(=O)N[C@@H](Cc1c[nH]c3ccccc13)C(=O)N[C@@H](CCN)C(=O)N[C@@H](C(C)(C)C)C(=O)N2 [Example 29, cyclo(-Leu-Dap-Tyr-Dab-Orn-^DDab-Dab-Trp-Dab-tBuGly-Glu-Ser-^DPro-Pro-)] (cyclo(L[Dap]Y[Dab][Orn][dDab][Dab]W[Dab][Tle]ES[dP]P); lactam 2-11)",1,1,0.5,0.5,–,–,–,–
"CC(C)C[C@@H]1NC(=O)[C@H](CCN)NC(=O)[C@H]2CCCN2C(=O)[C@H](C(C)C)NC(=O)[C@@H]2CSSC[C@H](NC1=O)C(=O)N[C@@H](Cc1ccc(O)cc1)C(=O)N[C@@H](C)C(=O)N[C@@H](CCN)C(=O)N[C@@H](CCN)C(=O)N[C@@H](CCN)C(=O)N[C@@H](Cc1c[nH]c3ccccc13)C(=O)N[C@@H](C)C(=O)N[C@@H](C(C)C)C(=O)N2 [Example 1, cyclo(-Leu-Cys-Tyr-Ala-Dab-Dab-Dab-Trp-Ala-Val-Cys-Val-^DPro-Dab-)] (HELM PEPTIDE1{A.[Dab].[Dab].[Dab].W.A.V.C.V.[dP].[Dab].L.C.Y}$PEPTIDE1,PEPTIDE1,8:R3-13:R3|PEPTIDE1,PEPTIDE1,1:R1-14:R2$$$V2.0)",–,–,–,–,2.5,4,2,2

# Reference: patent US10259847B2, “Beta-hairpin peptidomimetics” (POLYPHOR AG, priority 2014, dated 2019)
